Laboratory results published in patent US20140121182A1, “PROTEASOME INHIBITORS AND PROCESSES FOR THEIR PREPARATION, PURIFICATION AND USE” (Cephalon, Inc., priority 2011, published 2014).
Values belong to the compound of their own block, whether it stands above or below them.

Legend:
[1] = Comparative bioavailability: pharmacokinetic parameters for Compound 1 in rat plasma and blood after single iv and oral doses of its esters; type: in vivo, male Sprague Dawley rats; settings: for AUC0-t / AUC0-∞ / CL / Vd / t½ / Cmax / Oral Bioavailability / Tmax: mean ± SEM
Method: Three adult male Sprague Dawley rats are used in each treatment group. The rats are fasted overnight prior to oral dose administration. Intravenous (IV) administration is via the lateral tail vein and oral doses are administered by gavage. The compound is administered iv or orally in a vehicle of phosphate buffered saline.
For blood collection, each rat (unanesthetized) is placed in a clear Plexiglas® restraining tube, and blood samples (approximately 0.25 mL) are drawn from a lateral tail vein into heparinized collection tubes at predetermined sampling times (0.083, 0.25, 0.5, 1, 2, 4, and 6 hours post dose). No pre-dose samples are obtained. The exception to this procedure is the last sampling time in which the animals are sacrificed by decapitation and trunk blood is obtained rather than blood via a tail vein. The blood samples are placed on wet ice until centrifuged to separate plasma. The whole blood and the plasma fraction are transferred into clean dry tubes, frozen on dry ice and stored at approximately −20° C. pending analysis.
Blood or plasma is prepared for high performance liquid chromatography (HPLC)/mass spectrometric analysis according to standard protocol following protein precipitation with acetonitrile containing an internal standard. The blood or plasma samples are then analyzed for Compound 1 and alprenolol (internal standard) via HPLC coupled with tandem mass spectrometry.
The blood and plasma concentration data for all rats are entered into Excel spreadsheets in preparation for pharmacokinetic analysis. Pharmacokinetic parameters for Compound 1 are estimated for each rat by non-compartmental analysis (Gibaldi M, Perrier D. Pharmacokinetics, 2nd edition, Marcel Dekker, New York, Chapter 11, 1982) of the blood or plasma concentration versus time data using WinNonlin software (Professional Version 4.1a, Pharsight Corporation, Palo Alto, Calif., 2003).
The maximum blood or plasma concentration (Cmax) is the highest observed concentration after an oral dose; tmax is the corresponding time when Cmax is observed. The terminal rate constant for elimination from blood or plasma (β) is estimated by linear regression of the terminal portion of the semi-logarithmic plasma concentration versus time curve. The apparent terminal half-life (t1/2) is calculated as 0.693 divided by β. The area under the blood or plasma concentration versus time curve from time zero to the time of the last measurable concentration (AUC0-t) after a single dose is determined by the linear trapezoidal rule. The area from zero to infinity (AUC0-∞) is calculated as the sum of AUC0-t and the area extrapolated from the last measurable concentration to infinity (Clast/β). Concentrations pre dose are all assumed to be zero for the purpose of calculation of the AUC. Oral bioavailability is determined by dividing the dose normalized oral AUC0-∞ by the […] from iv dosing and multiplying by 100 to express the ratio as a percent.
The mean±SEM. pharmacokinetic parameters for Compound 1 in male Sprague Dawley rats administered as single iv and oral doses of the citric acid ester of Compound 1 (“Form 1” or “Form 2”) or the diethanolamine ester of Compound 1 (“DEA Adduct”; i.e., boronic ester of Formula X) are shown in Tables 5-10 and corresponding FIGS. 5-10.

[2] = Storage for approximately one year at ambient indoor temperature and humidity, HPLC purity; type: physicochemical; settings: in a vial at the rear of a fume hood
Method: A 100 mL three neck round bottom flask equipped with a stir bar, thermocouple and nitrogen inlet is charged with 6.0 g (16.6 mmol) of Compound 1 (98.5A % purity) and 60 mL of ethyl acetate then stirred for five minutes at room temperature to dissolve the solids. Diethanol amine (1.68 g, 16.0 mmol) is charged and solids begin to form when addition is only ⅔ complete. The white slurry is stirred at room temperature for two hours and then the solids are collected by vacuum filtration, washed with 50 mL of ethyl acetate and dried overnight in a vacuum oven at 40° C. A quantitative yield of the desired product is obtained as a crystalline solid with an HPLC purity of 99.7A %. After storing for approximately one (1) year at ambient indoor temperature and humidity (in a vial at the rear of a fume hood), the HPLC purity was 99.9A %. ^1H NMR (d6-DMSO, 400 MHz) δ 8.8 (t, 1H, J=5.88 Hz), 7.55 (s, 2H), 7.52 (s, 1H), 6.99 (d, 1H, J=8.36 Hz), 6.57 (s, b, 1H), 3.85 (dq, 1H, J=16.1, 5.92 Hz), 3.69 (m, 2H), 3.57 (m, 1H), 3.14 (m, 1H), 2.99 (m, 2H), 2.75 (m, 1H), 2.69 (m, 1H), 1.59 (m, 1H), 1.31 (m, 1H), 1.22 (m, 1H), 0.824 (d, 3H, J=6.64 Hz), 0.797 (D, 3 h, J=6.48 Hz)
A 15 mL one neck round bottom flask equipped with a stir bar and nitrogen inlet is charged with 0.5 g (1.39 mmol) of Compound 1 (98.5A % purity) and 5 mL of ethyl acetate then stirred for five minutes at room temperature to dissolve the solids. Diisopropanolamine (185 mg, 1.39 mmol) is charged and stirred at room temperature. The white precipitate is collected by vacuum filtration, washed with 5 mL of ethyl acetate and dried overnight under nitrogen on the filter to give 410 mg (0.895 mmol, 64%) of the desired product with an HPLC purity of 99.4A %. […]

[3] = Storage stability in freezer / under ambient conditions; type: physicochemical
From the text: Compound 1 is obtained as a non-crystalline solid using the process set forth in US 2009/0325903. Compound 1 is obtained as a mixture of monomer and the trimer anhydride N,N′,N″-boroxin-2,4,6-triyltris {{(1R)-3-methylbutane-1,1-diyl]imino(2-oxoethane-2,1-diyl)]}tris(2,5-dichlorobenzamide) (H NMR analysis).
The citric acid ester of Compound 1 (4-(R,S)-(carboxymethyl)-2-((R)-1-(2-(2,5-dichlorobenzamido)acetamido)-3-methylbutyl)-6-oxo-1,3,2-dioxaborinane-4-carboxylic acid) is obtained as a crystalline solid (Form 1 or Form 2) using the process set forth in US 2009/0325903. The citric acid ester of Compound 1 is stable when stored in the freezer.

[4] = Compound 1 in blood, 0.3 mg/kg IV
[5] = Compound 1 in blood, 1 mg/kg IV
[6] = Compound 1 in blood, 1 mg/kg PO
[7] = Compound 1 in blood, 3 mg/kg PO
[8] = Compound 1 in plasma, 0.3 mg/kg IV
[9] = Compound 1 in plasma, 1 mg/kg IV
[10] = Compound 1 in plasma, 1 mg/kg PO
[11] = Compound 1 in plasma, 3 mg/kg PO

Compound: 2,5-Dichloro-N—[(R)-1-[1,3,6,2]dioxazaborocan-2-yl-3-methyl-butylcarbamoyl)methyl]-benzamide [boronic ester of Formula X]
AUC0-t [1, 4]: 168 ± 46 ng·h/mL
AUC0-∞ [1, 4]: 190 ± 45 ng·h/mL
CL [1, 4]: 30 ± 6 mL/min/kg
Vd [1, 4]: 5.8 ± 1.9 L/kg
t½ [1, 4]: 2.2 ± 0.4 h
AUC0-t [1, 5]: 509 ± 89 ng·h/mL
AUC0-∞ [1, 5]: 535 ± 100 ng·h/mL
CL [1, 5]: 33 ± 6 mL/min/kg
Vd [1, 5]: 3.9 ± 0.7 L/kg
t½ [1, 5]: 1.4 ± 0.2 h
AUC0-t [1, 6]: 166 ± 16 ng·h/mL
AUC0-∞ [1, 6]: 200 ± 17 ng·h/mL
Cmax [1, 6]: 92 ± 39 ng/mL
Oral Bioavailability [1, 6]: 32 ± 1%
Tmax [1, 6]: 0.3 ± 0.1 h
t½ [1, 6]: 2.8 h
AUC0-t [1, 7]: 336 ± 69 ng·h/mL
AUC0-∞ [1, 7]: 381 ± 78 ng·h/mL
Cmax [1, 7]: 205 ± 84 ng/mL
Oral Bioavailability [1, 7]: 23 ± 4%
Tmax [1, 7]: 0.8 ± 0.6 h
t½ [1, 7]: 1.7 ± 0.2 h
AUC0-t [1, 8]: 449 ± 256 ng·h/mL
AUC0-∞ [1, 8]: 457 ± 254 ng·h/mL
CL [1, 8]: 20 ± 9 mL/min/kg
Vd [1, 8]: 0.9 ± 0.3 L/kg
t½ [1, 8]: 0.6 ± 0.1 h
AUC0-t [1, 9]: 1225 ± 42 ng·h/mL
AUC0-∞ [1, 9]: 1240 ± 47 ng·h/mL
CL [1, 9]: 13 ± 1 mL/min/kg
Vd [1, 9]: 1.2 ± 0.1 L/kg
t½ [1, 9]: 1.1 ± 0.1 h
AUC0-t [1, 10]: 170 ± 16 ng·h/mL
AUC0-∞ [1, 10]: 182 ± 17 ng·h/mL
Cmax [1, 10]: 179 ± 39 ng/mL
Oral Bioavailability [1, 10]: 12 ± 1%
Tmax [1, 10]: 0.3 ± 0.1 h
AUC0-t [1, 11]: 990 ± 310 ng·h/mL
AUC0-∞ [1, 11]: 1029 ± 299 ng·h/mL
Cmax [1, 11]: 567 ± 185 ng/mL
Oral Bioavailability [1, 11]: 27 ± 8%
Tmax [1, 11]: 0.5 ± 0.0 h
t½ [1, 11]: 1.1 ± 0.1 h
oral bioavailability (conclusion in words) ([1]; conclusion from Tables 5-10): orally bioavailable
HPLC purity after storing for approximately one (1) year [2]: 99.9 A %

Compound: CC(C)C[C@H](NC(=O)CNC(=O)c1cc(Cl)ccc1Cl)B1OC(=O)CN(C)CC(=O)O1 [2,5-Dichloro-N—{[(R)-3-methyl-1-(6-methyl-4,8-dioxo-[1,3,6,2]dioxazaborocan-2-yl)-butylcarbamoyl]-methyl}benzamide]
HPLC purity after storing for approximately one (1) year [2]: 84.4 A %

Further lines, results first:

storage stability ([3]; stored in the freezer): stable
Compound: CC(C)C[C@H](NC(=O)CNC(=O)c1cc(Cl)ccc1Cl)B1OC(=O)CC(CC(=O)O)(C(=O)O)O1 (mixture of isomers) [citric acid ester of Compound 1, 4-(R,S)-(carboxymethyl)-2-((R)-1-(2-(2,5-dichlorobenzamido)acetamido)-3-methylbutyl)-6-oxo-1,3,2-dioxaborinane-4-carboxylic acid, reference compound]

storage stability ([3]; ambient conditions): not storage stable
storage stability ([3]; stored in the freezer): stable
Compound: CC(C)C[C@H](NC(=O)CNC(=O)c1cc(Cl)ccc1Cl)B(O)O [Compound 1, [(1R)-1-({[(2,5-dichlorobenzoyl)amino]acetyl}amino)-3-methylbutyl]boronic acid]

HPLC purity after storing for approximately one (1) year [2]: 99.8 A %
Compound: CC(C)C[C@H](NC(=O)CNC(=O)c1cc(Cl)ccc1Cl)B1OC(C)CNCC(C)O1 (stereo partly drawn) [boronic ester of Formula IX, 2,5-Dichloro-N-{[(R)-1-(4,8-dimethyl-[1,3,6,2]dioxazaborocan-2-yl)-3-methyl-butylcarbamoyl]-methyl}benzamide]
